Reference: PMC6826492, “Experimental and Computational Study of the Antioxidative Potential of Novel Nitro and Amino Substituted Benzimidazole/Benzothiazole-2-Carboxamides with Antiproliferative Activity” (Antioxidants, 2019)
Read-outs that look alike come from different tables or passages of the source.

Legend:
[1] = DPPH free radical scavenging; assay type: biochemical; parameters: key to DPPH IC50: –: Very low activity; conditions: after 30 min of incubation with 100 μM DPPH
Description: The reducing activity of investigated systems was achieved by the DPPH method according to previously described procedures with modifications to assure the use in a 96-well microplate. Briefly, equal volumes of various concentrations of tested molecules (dissolved in DMSO) were added to the solution of DPPH (final concentration 50 µM in absolute ethanol). Ethanol and DMSO were used as control solutions in line with earlier reports.

HCT116 cell line [2] = experiment: Mitochondrial ROS measurement assay (MitoSOX, flow cytometry); assay type: cell-based, human; conditions: HCT116, 10 µM compounds (3 µM Rotenone positive control), 1 h, *** p < 0.001, ns not significant
[3] = system: HEK 293 (human embryonic kidney cells); experiment: Cytotoxic activity on non-cancerous cells (MTT assay); assay type: cell-based; conditions: for IC50: Homo sapiens, HEK293, non-tumor cell line, 72 h incubation, MTT, concentration that causes 50% growth inhibition
Description: (§1) The experiments were performed on four human cell lines, including HCT 116 (colon carcinoma), H 460 (lung carcinoma), MCF-7 (breast carcinoma), and HEK 293 (human embryonic kidney cells), in line with previously published experimental procedures. Briefly, the cells were grown in DMEM medium with the addition of 10% fetal bovine serum (FBS), 2 mM L-glutamine, 100 U/mL penicillin, and 100 µg/mL streptomycin, and cultured as monolayers at 37 °C in a humidified atmosphere with 5% CO2. Cells were seeded at 2 × 10^3 cells/well in a standard 96-well microtiter plates and left to attach for 24 h. The next day, a test compound was added in five serial 10-fold dilutions. The rate of cell growth was evaluated after 72 h of incubation with MTT assays. The obtained results are expressed as IC50 values, calculated from the concentration-response curve using linear regression analysis by fitting the test concentrations that give PG values above and below the reference value (i.e., 50%). Each test was performed in quadruplicate in at least two individual experiments.

three human cancer cells = experiment: Antiproliferative activity in vitro, range over the tumor cell lines; assay type: cell-based; conditions: HCT116, MCF-7, H 460
Description: as §1

HCT116 cell line [4] = experiment: Cellular ROS measurement assay (DCFH-DA, flow cytometry); assay type: cell-based, human; conditions: HCT116, 10 µM compounds (2 mM H2O2 positive control), 1 h, DCF-DA; *** p < 0.001, ns not significant
Description: Figure S53. Impact of compounds on cellular ROS production was measured with fluorescent dye DCF-DA in HCT116 cell line, after the treatment with 10 µM compounds for 1h. H 2O2 was used as a positive control. Data presented here are the results of 3 independent measurements, done in duplicates. One-way ANOVA with Tukey’s post-hoc test was used for statistical analysis, ***- p < 0.001. […]
Human colon carcinoma cell line HCT116 was grown in DMEM medium with the addition of 10% fetal bovine serum (FBS), 2 mM L-glutamine, 100 U/ml penicillin and 100 µg/ml streptomycin, and cultured as monolayers at 37°C in a humidified atmosphere with 5% CO2.
Cellular ROS measurement assay
For the cellular ROS measurement assay, 2.5 × 10^4 cells were seeded into 96-well microtiter plates 24h prior to experiment. Next day, cells were trypsinized and incubated in FBS-free DMEM medium with 20 µM DCFH-DA fluorescence dye for 45 minutes. After the incubation, compounds were added without washing and cells were treated with 2 mM H 2O2 as a positive control and 10 µM compounds 8, 14 and 26 for 1 hour. Cells were washed in PBS and DCFH-DA signal was measured by flow cytometry, in FL1 channel. […]

[5] = system: HCT 116 (colon carcinoma); experiment: Antiproliferative activity in vitro (MTT assay); assay type: cell-based, human; conditions: 72 h incubation, concentration that causes 50% growth inhibition, read-out: IC50 HCT116
Description: as §1

MCF-7 (breast carcinoma) = experiment: Antiproliferative activity in vitro (MTT assay); assay type: cell-based, human; conditions: 72 h incubation, concentration that causes 50% growth inhibition
Description: as §1

H 460 (lung carcinoma) = experiment: Antiproliferative activity in vitro (MTT assay); assay type: cell-based, human; conditions: 72 h incubation, concentration that causes 50% growth inhibition
Description: as §1

[6] = Ferric reducing/antioxidant power (FRAP assay); assay type: biochemical; conditions: means ± standard deviation; absorbance at 593 nm
Description: The FRAP method was carried out according to previously described procedures with some modifications to be compatible with an assay on a 96-well microplate. All tests were done in triplicate, while the obtained results were averaged and reported as Fe^2+ equivalents (Fe^2+ µmol).
By using the FRAP assay, we investigated the reducing power of investigated systems, which was monitored by the corresponding changes in the absorbance at 593 nm. This method is based on the ability of systems to reduce the ferric tripyridyl triazine complex (TPTZ) to the ferrous state (Fe^2+), which can be seen by an intense blue color. […] Good reducing ability was shown by the trimethoxy substituted benzimidazole-2-carboxamide 14 bearing the amino group (1102.5 ± 14.1 mmolFe^2+/mmolC).

HCT 116 cells = experiment: Antioxidative activity assay in cells (TBHP-induced ROS, DCFH-DA); assay type: cell-based, human; conditions: 100 µM TBHP + 10 µM compound, 1 h, DCFH-DA fluorescence
Description: For the antioxidative activity assay, 2.5 × 10^4 cells were seeded into 96-well microtiter plates and left to attach for 24 h. The next day, cells were washed with PBS and incubated in FBS-free DMEM medium with 25 µM DCFH-DA fluorescence dye. After 45 min of incubation, medium was discarded, and cells were washed with PBS. After the washing step, cells were incubated with 100 µM tert-Butyl hydroperoxide (TBHP) alone or in combination with antioxidative agents (50 mM N-Acetyl-L-cysteine—NAC, or 10 µM tested compounds) in PBS, for 1 h at 37 °C. DCFH-DA fluorescence was recorded on a microplate fluorimeter reader (Tecan) with excitation beam of 485 nm, while the emitted fluorescence was collected at 535 nm. All tests were presented as medians of three independent measurements, done in triplicates. One-way ANOVA with Tukey’s post-hoc test was used for statistical analysis, * p < 0.05, ** p < 0.01, *** p < 0.001.
In order to test the antioxidant activity of selected systems in tumor cells (Figure 1), we treated HCT 116 cells with tert-Butyl hydroperoxide (TBHP), a substance commonly used for inducing oxidative stress in cells and tissues, alone or in a combination with a known antioxidative agent N-Acetyl-L-cysteine (NAC) or tested compounds [35]. We measured the formation of oxidative stress by-products using 2′,7′-dichlorodihydrofluorescein diacetate (DCFH-DA). We selected system 8 showing pronounced antiproliferative/cytotoxic activity, but no antioxidant capacity in DPPH/FRAP assays, 29 showing exceptionally pronounced antioxidative activity in DPPH/FRAP tests, 14 showing negligible antiproliferative but strong antioxidant capacity in both DPPH/FRAP assays, and 26 showing similarly strong antiproliferative and radical trapping activity in DPPH assay, but rather modest reducing power in FRAP assay. None of the compounds influenced the basal level of ROS in the cells. […] On the other hand, no effect was obtained upon treatment with either 8 or 14 (Figure 1). We additionally tested the impact of the selected compounds on cellular and mitochondrial ROS production in HCT 116 cells using fluorescent dyes, DCFH-DA for cellular and MitoSOX for mitochondrial ROS detection (Supplementary Materials, Figures S53 and S54).
Figure 1 Antioxidative activity of selected systems. HCT 116 cells were treated with the combination of tert-Butyl hydroperoxide (TBHP, 100 uM) and N-Acetyl-L-cysteine (NAC, 50 mM) or tested compounds 8, 14, 26, and 29 (10 µM) for 1 h. The level of reactive oxygen species (ROS) was measured with fluorescent dye 2′,7′-dichlorodihydrofluorescein diacetate (DCFH-DA) using fluorimeter. Treatment with 100 uM TBHP alone was used as a control for ROS induction. Data presented here are the results of three independent measurements, done in triplicates. […]

| DPPH IC50 [1] | IC50 (three human cancer cells) [nM] | IC50 ([5]; Homo sapiens, HCT-116, 72 h) [µM] | IC50 (MCF-7 (breast carcinoma); Homo sapiens, MCF7, 72 h) [nM] | IC50 (H 460 (lung carcinoma); Homo sapiens, NCI-H460, 72 h) [nM] | IC50 [1] [µM] | IC50 [5] [µM] | IC50 (MCF-7 (breast carcinoma)) [nM] | IC50 (H 460 (lung carcinoma)) [nM] | Structure (SMILES) | mitochondrial ROS production (significance vs control) (HCT116 cell line [2]) | lower activity towards HEK293 cells than towards HCT116 cells (times) ([3]; HEK293 vs HCT116) | IC50 [3] [nM] | cellular ROS production (significance vs control) (HCT116 cell line [4]) | FRAP [6] [mmolFe^2+/mmolC] | ROS levels when oxidative stress was induced (HCT 116 cells) |
| --- | --- | --- | --- | --- | --- | --- | --- | --- | --- | --- | --- | --- | --- | --- | --- |
| – | 600 to 2000 | 0.6 ± 0.03 | 1000 ± 200 | 2000 ± 200 |  |  |  |  | COc1cc(C(=O)Nc2nc3ccc([N+](=O)[O-])cc3[nH]2)cc(OC)c1OC [Compound 8, 3,4,5-trimethoxy-N-[5(6)-nitrobenzimidazol-2-yl]benzamide] | ns | ≈ 3 times | 2000 ± 500 | ns | 89.7 ± 6.2 | no effect |
|  | 3000 to 10000 |  |  |  | 12 ± 1.1 | 10 ± 8 | 3000 ± 700 | 4000 ± 100 | COc1ccccc1C(=O)Nc1nc2ccc(N)cc2s1.Cl [Compound 21, N-(6-aminobenzothiazol-2-yl)-2-methoxybenzamide hydrochloride] |  |  | 25000 ± 1500 |  | 214.3 ± 3.4 |  |
|  |  | 4 ± 0.1 | 3000 ± 1000 | 3000 ± 500 | 8.1 ± 1.9 |  |  |  | COc1c(O)cc(C(=O)Nc2nc3ccc([N+](=O)[O-])cc3[nH]2)cc1O [Compound 26, 3,5-dihydroxy-4-methoxy-N-[5(6)-nitrobenzimidazol-2-yl]benzamide] | ns |  | 3000 ± 700 | ns | 244.9 ± 4.8 | significantly reduced the ROS levels |
